According to patent US11566007B2, “Ras inhibitors” (Revolution Medicines, Inc., priority 2019, dated 2023):
Like-named read-outs stand apart in the source and are kept apart here.

Key:
[1] = target: NRAS WT (Homo sapiens (Human), UniProt P01111+P62937); assay: Ras-Raf (BRAF RBD) disruption / FRET / MOA assay, NRAS WT; format: biochemical; settings: read-out: IC50* NRAS WT FRET data
Outline: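 Compounds (30 μM top final, 10-point 3-fold dilutions) incubated 3 h at 25° C with nucleotide-loaded Ras, cyclophilin A and BRAF RBD. Detection with 10 nM anti-His Eu-W1024 and 50 nM anti-GST allophycocyanin over another 1.5 h. Lowered TR-FRET ratio relative to DMSO wells gives IC50.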

[2] = target: NRAS G12C (Homo sapiens (Human), UniProt P01111+P62937, G12C); assay: Ras-Raf (BRAF RBD) disruption / FRET / MOA assay, NRAS G12C; format: biochemical; settings: read-out: IC50* NRAS G12C FRET data
Sequence of NRAS G12C (P01111 whole entry G12C): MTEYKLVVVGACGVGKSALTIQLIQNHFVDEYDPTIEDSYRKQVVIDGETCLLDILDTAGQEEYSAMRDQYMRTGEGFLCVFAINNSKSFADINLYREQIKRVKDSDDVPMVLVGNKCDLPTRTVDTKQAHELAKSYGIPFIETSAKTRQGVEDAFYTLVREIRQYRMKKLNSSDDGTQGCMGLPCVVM
Sequence of NRAS G12C (P62937 whole entry): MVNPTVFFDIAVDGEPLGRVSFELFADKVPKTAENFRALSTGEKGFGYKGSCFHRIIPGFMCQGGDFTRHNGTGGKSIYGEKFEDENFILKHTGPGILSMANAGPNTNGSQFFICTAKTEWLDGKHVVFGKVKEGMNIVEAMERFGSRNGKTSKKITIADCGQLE
Outline: (§1)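 Compound-driven ternary complex of nucleotide-loaded Ras with cyclophilin A, disrupting BRAF RBD binding. 10-point 3-fold dilution from 30 μM final, 3 h at 25° C, then anti-His Eu-W1024 (10 nM) and anti-GST allophycocyanin (50 nM) for 1.5 h. IC50 from TR-FRET ratio decrease versus DMSO.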

[3] = target: K-Ras G12C (Homo sapiens (Human), UniProt P01116+P62937, G12C); assay: Ras-Raf (BRAF RBD) disruption / FRET / MOA assay, KRAS G12C; format: biochemical; settings: KRAS G12C; Ras-Raf disruption/FRET/MOA assay; read-out: IC50* KRAS G12C FRET data
Sequence of K-Ras G12C (P01116-2 other isoform, or with tags, fused parts or gaps G12C): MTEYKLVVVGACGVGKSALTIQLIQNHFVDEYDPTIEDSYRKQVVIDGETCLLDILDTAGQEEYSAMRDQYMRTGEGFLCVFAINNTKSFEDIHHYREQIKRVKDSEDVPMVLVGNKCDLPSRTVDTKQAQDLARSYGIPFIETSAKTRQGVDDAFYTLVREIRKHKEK
Sequence of K-Ras G12C (P62937 whole entry): as the sequence (P62937 whole entry) above
Outline: as §1

[4] = test system: NCI-H358 cells (K-Ras G12C); assay: Potency assay: pERK in NCI-H358 cells; format: cell-based, human; settings: Homo sapiens
Outline: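 4 h cpd, 37 °C; 10-pt 3-fold series, 10 mM DMSO top stock, duplicates. Readout pERK: AlphaLISA SureFire Ultra or In-Cell Western (IR-800CW secondary, DRAQ5 DNA stain). IC50, 4-PL fit vs log conc.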

[5] = target: KRAS G12V (Homo sapiens (Human), UniProt P01116+P62937, G12V); assay: Ras-Raf (BRAF RBD) disruption / FRET / MOA assay, KRAS G12V; format: biochemical; settings: read-out: IC50* KRAS G12V FRET data
Sequence of KRAS G12V (P01116-2 other isoform, or with tags, fused parts or gaps G12V): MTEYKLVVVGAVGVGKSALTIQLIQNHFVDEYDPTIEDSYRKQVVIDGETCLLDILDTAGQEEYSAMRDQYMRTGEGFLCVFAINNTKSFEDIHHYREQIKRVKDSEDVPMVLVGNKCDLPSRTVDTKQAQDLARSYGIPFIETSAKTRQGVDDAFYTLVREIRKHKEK
Sequence of KRAS G12V (P62937 whole entry): as the sequence (P62937 whole entry) above
Outline: as §1

[6] = target: KRAS G13D (Homo sapiens (Human), UniProt P01116+P62937, G13D); assay: Ras-Raf (BRAF RBD) disruption / FRET / MOA assay, KRAS G13D; format: biochemical; settings: read-out: IC50* KRAS G13D FRET data
Sequence of KRAS G13D (P01116-2 other isoform, or with tags, fused parts or gaps G13D): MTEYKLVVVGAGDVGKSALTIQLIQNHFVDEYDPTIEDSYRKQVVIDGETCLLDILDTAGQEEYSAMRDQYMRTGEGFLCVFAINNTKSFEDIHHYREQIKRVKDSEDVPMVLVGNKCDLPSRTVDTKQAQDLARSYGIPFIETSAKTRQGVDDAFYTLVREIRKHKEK
Sequence of KRAS G13D (P62937 whole entry): as the sequence (P62937 whole entry) above
Outline: as §1

[7] = target: KRAS G12S (Homo sapiens (Human), UniProt P01116+P62937, G12S); assay: Ras-Raf (BRAF RBD) disruption / FRET / MOA assay, KRAS G12S; format: biochemical; settings: Ras-Raf disruption/FRET/MOA assay; class symbols; read-out: KRAS G12S FRET data IC50
Sequence of KRAS G12S (P01116-2 other isoform, or with tags, fused parts or gaps G12S): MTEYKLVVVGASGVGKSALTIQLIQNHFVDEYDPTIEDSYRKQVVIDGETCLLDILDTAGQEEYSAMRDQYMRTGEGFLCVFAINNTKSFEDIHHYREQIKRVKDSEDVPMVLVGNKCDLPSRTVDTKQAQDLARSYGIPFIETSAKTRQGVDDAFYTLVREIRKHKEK
Sequence of KRAS G12S (P62937 whole entry): as the sequence (P62937 whole entry) above
Outline: as §1

[8] = NCI-H358, H358 KRAS G12C, read-out: pERK EC50

Sequence of NRAS WT (P01111 whole entry): as the sequence (P01111 whole entry G12C) above, with C12G counted along it
Sequence of NRAS WT (P62937 whole entry): as the sequence (P62937 whole entry) above

SMILES | IC50 [1] | IC50 [2] | IC50 [3] | EC50 [4, 8] | IC50 [5] | IC50 [6] | IC50 [7] | EC50 ([4]; NCI-H358, read-out: pERK EC50)
C=CC(=O)N(C)CCN1CCN(C(=O)N(C)[C@H](C(=O)N[C@H]2Cc3cccc(c3)-c3ccc4c(c3)c(c(-c3cccnc3[C@H](C)OC)n4CC)CC(C)(C)COC(=O)[C@@H]3CCCN(N3)C2=O)C(C)C)CC1 (atropisomer, axis not shown) [Example A539] | 100 to 1000 nM | 100 to 1000 nM | 100 to 1000 nM | < 5000 nM | 100 to 1000 nM | 1000 to 10000 nM | 100 to 1000 nM | 
C=CC(=O)N1CCOC2(CCN(C(=O)N(C)[C@H](C(=O)N[C@H]3Cc4cc(C(F)F)cc(n4)-c4ccc5c(c4)c(c(-c4cccnc4[C@H](C)OC)n5CC(F)(F)F)CC(C)(C)COC(=O)[C@@H]4CCCN(N4)C3=O)C(C)C)CC2)C1 (atropisomer, axis not shown) [Example A541] | 100 to 1000 nM | 100 to 1000 nM | 100 to 1000 nM | < 5000 nM | 1000 to 10000 nM | 1000 to 10000 nM | 100 to 1000 nM | 
C=CC(=O)N1CCC[C@]12CCN(C(=O)N(C)[C@H](C(=O)N[C@H]1Cc3nc(cs3)-c3ccc4c(c3)c(c(-c3cccnc3[C@H](C)OC)n4CC)CC(C)(C)COC(=O)[C@@H]3CCCN(N3)C1=O)C(C)C)C2 (atropisomer, axis not shown) [Example A548] | 100 to 1000 nM | 100 to 1000 nM | 100 to 1000 nM | < 5000 nM | 100 to 1000 nM | 1000 to 10000 nM | 100 to 1000 nM | 
C=CC(=O)N(C)CCN1CCN(C(=O)N(C)[C@H](C(=O)N[C@H]2Cc3cccc(c3)-c3ccc4c(c3)c(c(-c3cccnc3[C@H](C)OC)n4CC)CC(C)(C)COC(=O)[C@@H]3CCCN(N3)C2=O)C(C)C)C[C@H]1C (atropisomer, axis not shown) [Example A553] | 1000 to 10000 nM | 100 to 1000 nM | 100 to 1000 nM | < 5000 nM | 1000 to 10000 nM | 1000 to 10000 nM | 1000 to 10000 nM | 
C=CC(=O)N1CCC2(CCN(C(=O)N(C)[C@H](C(=O)N[C@H]3Cc4cccc(c4)-c4ccc5c(c4)c(c(-c4cccnc4[C@H](C)OC)n5CC)CC(C)(C)COC(=O)[C@@H]4CCCN(N4)C3=O)C(C)C)CC2)C1 (atropisomer, axis not shown) [Example A554] | 100 to 1000 nM | 100 to 1000 nM | 100 to 1000 nM | < 5000 nM | 100 to 1000 nM | 1000 to 10000 nM | 100 to 1000 nM | 
C=CC(=O)N1CC[C@]2(C1)OCN([C@H](C(=O)N[C@H]1Cc3cc(cc(C(F)F)c3)-c3ccc4c(c3)c(c(-c3cccnc3[C@H](C)OC)n4CC)CC(C)(C)COC(=O)[C@@H]3CCCN(N3)C1=O)C(C)C)C2=O (atropisomer, axis not shown) [Example A557] | 100 to 1000 nM | 100 to 1000 nM | 100 to 1000 nM | < 5000 nM | 1000 to 10000 nM | 1000 to 10000 nM | 100 to 1000 nM | 
CCn1c(-c2cccnc2[C@H](C)OC)c2c3cc(ccc31)-c1cccc(c1)C[C@H](NC(=O)[C@H](C(C)C)N1CC[C@]3(CCN(C(=O)C#C[C@H]4COCCN4C4COC4)C3)C1=O)C(=O)N1CCC[C@H](N1)C(=O)OCC(C)(C)C2 (atropisomer, axis not shown) [Example A568] | > 10000 nM | 100 to 1000 nM | 10 to 100 nM | < 5000 nM | > 10000 nM | > 10000 nM | 1000 to 10000 nM | 
CCn1c(-c2cccnc2[C@H](C)OC)c2c3cc(ccc31)-c1cccc(c1)C[C@H](NC(=O)[C@H](C(C)C)N1CC[C@]3(CCN(C(=O)C#C[C@@H]4COCCN4C)C3)C1=O)C(=O)N1CCC[C@H](N1)C(=O)OCC(C)(C)C2 (atropisomer, axis not shown) [Example A569] | > 10000 nM | 10 to 100 nM | 10 to 100 nM |  | > 10000 nM | > 10000 nM | 1000 to 10000 nM | < 5000 nM
C=CC(=O)N(C)CCN1CCN(C(=O)N(C)[C@H](C(=O)N[C@H]2Cc3cccc(c3)-c3ccc4c(c3)c(c(-c3cccnc3[C@H](C)OC)n4CC)CC(C)(C)COC(=O)[C@@H]3CCCN(N3)C2=O)C(C)C)C[C@@H]1C (atropisomer, axis not shown) [Example A570] | 100 to 1000 nM | 100 to 1000 nM | 100 to 1000 nM | < 5000 nM | 100 to 1000 nM | 1000 to 10000 nM | 100 to 1000 nM | 
C=CC(=O)N1CCO[C@H]2CN(C(=O)N(C)[C@H](C(=O)N[C@H]3Cc4nc(n(C)n4)-c4ccc5c(c4)c(c(-c4cccnc4[C@H](C)OC)n5CC(F)(F)F)CC(C)(C)COC(=O)[C@@H]4CCCN(N4)C3=O)C(C)C)C[C@H]21 (atropisomer, axis not shown) [Example A575] | 100 to 1000 nM | 10 to 100 nM | 10 to 100 nM | < 5000 nM | 1000 to 10000 nM | 1000 to 10000 nM | 100 to 1000 nM | 
C=CC(=O)N1CCO[C@]2(CCN(C(=O)N(C)[C@H](C(=O)N[C@H]3Cc4nc(cs4)-c4ccc5c(c4)c(c(-c4cccnc4[C@H](C)OC)n5CC(F)(F)F)CC(C)(C)COC(=O)[C@@H]4CCCN(N4)C3=O)C(C)C)C2)C1 (atropisomer, axis not shown) [Example A593] | 100 to 1000 nM | 100 to 1000 nM | 100 to 1000 nM | < 5000 nM | 1000 to 10000 nM | 1000 to 10000 nM | 1000 to 10000 nM | 
CCn1c(-c2cccnc2[C@H](C)OC)c2c3cc(ccc31)-c1csc(n1)C[C@H](NC(=O)[C@H](C(C)C)N(C)C(=O)N1CCC13CN(C(=O)/C=C/CN(C)C)C3)C(=O)N1CCC[C@H](N1)C(=O)OCC(C)(C)C2 (atropisomer, axis not shown) [Example A598] | 10 to 100 nM | 10 to 100 nM | 10 to 100 nM | < 5000 nM | 100 to 1000 nM | 100 to 1000 nM | 10 to 100 nM | 
C=CC(=O)N1CCOC2(CCN(C(=O)N(C)[C@H](C(=O)N[C@H]3Cc4cccc(n4)-c4ccc5c(c4)c(c(-c4cccnc4[C@H](C)OC)n5CC(F)(F)F)CC(C)(C)COC(=O)[C@@H]4CCCN(N4)C3=O)C(C)C)CC2)C1 (atropisomer, axis not shown) [Example A607, 4-acryloyl-N-((2S)-1-(((6^3S,4S)-1^2-(2-((S)-1-methoxyethyl)pyridin-3-yl)-10,10-dimethyl-5,7-dioxo-1^1-(2,2,2-trifluoroethyl)-6^1,6^2,6^3,6^4,6^5,6^6-hexahydro-1^1H-8-oxa-1(5,3)-indola-6(1,3)-pyridazina-2(2,6)-pyridinacycloundecaphane-4-yl)amino)-3-methyl-1-oxobutan-2-yl)-N-methyl-1-oxa-4,9-diazaspiro[5.5]undecane-9-carboxamide] | 100 to 1000 nM | 100 to 1000 nM | 100 to 1000 nM | < 5000 nM | 1000 to 10000 nM | 1000 to 10000 nM | 1000 to 10000 nM | 
CCn1c(-c2cccnc2[C@H](C)OC)c2c3cc(ccc31)-c1csc(n1)C[C@H](NC(=O)[C@H](C(C)C)N(C)C(=O)N1CCC13CN(C(=O)/C=C/CN1CCOCC1)C3)C(=O)N1CCC[C@H](N1)C(=O)OCC(C)(C)C2 (atropisomer, axis not shown) [Example A611] | 100 to 1000 nM | 100 to 1000 nM | 100 to 1000 nM | < 5000 nM | 100 to 1000 nM | 100 to 1000 nM | 100 to 1000 nM | 
CCn1c(-c2cccnc2[C@H](C)OC)c2c3cc(ccc31)-c1cccc(c1)C[C@H](NC(=O)[C@@H](COC1CN(C(=O)C#CC(C)(C)N(C)C3CC3)C1)C(C)C)C(=O)N1CCC[C@H](N1)C(=O)OCC(C)(C)C2 (atropisomer, axis not shown) [Example A613] | > 10000 nM | 1000 to 10000 nM | 100 to 1000 nM | < 5000 nM | > 10000 nM | > 10000 nM | > 10000 nM | 
CCn1c(-c2cccnc2[C@H](C)OC)c2c3cc(ccc31)N1CCC[C@@H](C[C@H](NC(=O)[C@H](C(C)C)N(C)C(=O)[C@H]3CCN(C(=O)C#CC(C)(C)N4CCC4)C3)C(=O)N3CCC[C@H](N3)C(=O)OCC(C)(C)C2)C1 (atropisomer, axis not shown) [Example A617] | > 10000 nM | 10 to 100 nM | 10 to 100 nM | < 5000 nM | > 10000 nM | > 10000 nM | > 10000 nM | 
C=CC(=O)N1CCC[C@H]2CN(C(=O)N(C)[C@H](C(=O)N[C@H]3Cc4nc(cs4)-c4ccc5c(c4)c(c(-c4cccnc4[C@H](C)OC)n5CC)CC(C)(C)COC(=O)[C@@H]4CCCN(N4)C3=O)C(C)C)C[C@H]21 (atropisomer, axis not shown) [Example A618] | 100 to 1000 nM | 100 to 1000 nM | 100 to 1000 nM | < 5000 nM | 100 to 1000 nM | 1000 to 10000 nM | 100 to 1000 nM | 
